We go through 2 molecules from publication PMC2846458 (Nature medicine, 2008).

The structures appear in SMILES notation. Substitutions are numbered along the chain they refer to.

Data set [1] is described as follows: Tolerability of treatment in mice.
Data set [2] deals with Ad.Cre-injected conditional caALK2–transgenic mice. Description: Ectopic ossification in Ad.Cre-injected conditional caALK2-transgenic mice. It is filed as in vivo, mouse.
Data set [3] deals with C2C12 cells. Description: BMP4-induced alkaline phosphatase activity. It counts as cell-based. Conditions: 100 nM, BMP4 10 ng ml^-1, even when administered 12 h after BMP stimulation.
For data set [4], the target named is T1, ALK2^Q207D (Homo sapiens, UniProt Q04771, Q207D).
T1 sequence (Q04771 21-509 Q207D): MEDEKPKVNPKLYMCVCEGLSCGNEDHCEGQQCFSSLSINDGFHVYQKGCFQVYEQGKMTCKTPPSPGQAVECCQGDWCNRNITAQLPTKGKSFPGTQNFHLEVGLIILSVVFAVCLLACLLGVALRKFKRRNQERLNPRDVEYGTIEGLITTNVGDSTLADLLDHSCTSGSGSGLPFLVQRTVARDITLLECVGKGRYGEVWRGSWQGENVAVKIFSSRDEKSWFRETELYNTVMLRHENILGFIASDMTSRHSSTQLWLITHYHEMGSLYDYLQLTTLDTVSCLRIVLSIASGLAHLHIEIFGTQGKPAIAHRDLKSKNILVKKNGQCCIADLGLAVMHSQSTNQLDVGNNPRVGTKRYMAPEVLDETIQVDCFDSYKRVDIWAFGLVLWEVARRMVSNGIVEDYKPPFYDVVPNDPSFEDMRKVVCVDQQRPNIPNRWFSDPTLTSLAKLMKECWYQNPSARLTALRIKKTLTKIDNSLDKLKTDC
Description: Id1 promoter activity. It counts as cell-based.

For data set [5], the system named is TGF-β signaling. The data set can be described thus: Immunoblot of TGF-β signaling in PASMCs. Conditions: Mus musculus, PASMC, read-out: IC50 for TGF-β signaling. It counts as cell-based. (In general: Immunoblotting shows a protein as a band on a membrane.)
For data set [6], the target named is T2, ALK2^R206H (Homo sapiens, UniProt Q04771, R206H).
T2 sequence (Q04771 21-509 R206H): T1 sequence (Q04771 21-509 Q207D) with R186H, D187Q
The data set can be described thus: Id1 promoter activity. It counts as cell-based.

The mark [7] stands for this setting: 3 mg kg^-1 i.p. every 12 h, lesions attenuated in the remainder.

For `C[C@@H]1C[C@H]2[C@@H]3CCC4=CC(=O)C=C[C@]4(C)[C@@]3(F)[C@@H](O)C[C@]2(C)[C@@]1(O)C(=O)CO` [dexamethasone, reference compound], the “effect on weight and growth” value in data set [1] (wild-type or mutant mice, during drug administration) is recorded as “severely impaired weight gain”. Moreover, the “ectopic calcifications and immobility at P30” value in data set [2] (10 mg kg^-1 d^-1 i.p. starting 1 d after Ad.Cre at P7, versus vehicle) is recorded as “markedly reduced”.

As usually defined, the IC50 is the concentration at which inhibition is half-maximal. As for `c1ccc2c(-c3cnn4cc(-c5ccc(N6CCNCC6)cc5)cnc34)ccnc2c1` [LDN-193189, 4-[6-(4-piperazin-1-ylphenyl)pyrazolo[1,5-a]pyrimidin-3-yl]quinoline], in data set [3], the “effect on induction of alkaline phosphatase activity by BMP4” value was “inhibited the induction of alkaline phosphatase activity”. Also, the “fractures, osteopenia, skeletal abnormalities” value in data set [1] (3 mg kg^-1 i.p. every 12 h, up to P60) is listed as “without inducing fractures, osteopenia or skeletal abnormalities”. Further, in data set [4], the “effect on transcriptional activity induced by ALK2^Q207D” value is listed as “blocked the transcriptional activity”. In addition, the IC50 in data set [5] was at least 1 µM. Besides, in data set [2] (3 mg kg^-1 i.p. every 12 h), the “endochondral bone in hindlimbs (histology)” value is “substantially less endochondral bone”. Moreover, the “phosphorylated Smad1/5/8 and Runx2 staining in left gastrocnemius” value in data set [2] (3 mg kg^-1 i.p. every 12 h, P11) is reported as “diminished”. In data set [2] (3 mg kg^-1 i.p. every 12 h, P15 and P30, versus vehicle), the “passive range of motion in the ankle joint” value is on record as “significant rescue of function”. For the same molecule, in data set [2] (setting [7]), the “fraction of mice in which ectopic bone was prevented at P30” value was “approximately two-thirds” and the “fraction of mice in which ectopic bone was prevented at P60” value is reported as “one-third”. Besides, the “radiographic lesions at P15” value in data set [2] (3 mg kg^-1 i.p. every 12 h after Ad.Cre on P7) was “prevented radiographic lesions at P15 in all mice examined”. The “effect on transcriptional activity induced by ALK2^R206H” value in data set [6] is on record as “blocked the transcriptional activity”.
